By IC50 is commonly meant the concentration that inhibits the measured activity by half.

IC50 data for 25 compounds are collected here from patent publication US9604996B2 (Bayer Pharma Aktiengesellschaft, priority 2013, dated 2017).

In this experiment the target is T1, human adenosine A2b receptor (Homo sapiens, UniProt P29275).
T1 construct: expressed in transfected cells; host or cells: CHO-K1 (Chinese Hamster Ovary) with CRE-luciferase reporter
T1 sequence (P29275 1-332): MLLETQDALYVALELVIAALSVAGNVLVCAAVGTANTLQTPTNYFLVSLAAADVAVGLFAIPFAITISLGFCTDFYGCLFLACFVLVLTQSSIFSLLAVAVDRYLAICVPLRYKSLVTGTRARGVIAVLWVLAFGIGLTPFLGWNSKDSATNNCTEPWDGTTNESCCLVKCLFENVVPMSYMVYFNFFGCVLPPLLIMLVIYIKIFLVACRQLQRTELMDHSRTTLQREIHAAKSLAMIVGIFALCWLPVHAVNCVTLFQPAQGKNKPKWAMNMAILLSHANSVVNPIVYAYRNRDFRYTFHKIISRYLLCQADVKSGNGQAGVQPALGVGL
Nature of the experiment: Cellular reporter gene (CRE-luciferase) A2b receptor antagonist assay in recombinant CHO-K1 cells stimulated with NECA. The class given is cell-based. To be noted: recombinant CHO-K1 cell line, co-incubation with EC50 concentration of NECA, 3 hours, in some cases means, rounded to two significant digits. The method in brief:
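CHO-K1 cells expressing human A2b receptor with a CRE-driven firefly luciferase reporter, co-incubated with test compound and NECA at its same-day EC50 concentration. Luminescence read 3 hours after NECA addition.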
A general note: A reporter such as luciferase makes a cellular process visible.
As for `CCn1c(=O)c2c(C)c(C(=O)N3CCC(O)CC3)sc2n(CCOC(F)(F)F)c1=O` [Example 56, 3-Ethyl-6-[(4-hydroxypiperidin-1-yl)carbonyl]-5-methyl-1-[2-(trifluoromethoxy)ethyl]thieno[2,3-d]pyrimidine-2,4(1H,3H)-dione], the IC50 was 19 nM.

Consider `Cc1c(C(=O)N2CCC(C)(O)CC2)sc2c1c(=O)n(CCc1ccccc1)c(=O)n2CCOC(F)(F)F` [Example 109, 6-[(4-Hydroxy-4-methylpiperidin-1-yl)carbonyl]-5-methyl-3-(2-phenylethyl)-1-[2-(trifluoromethoxy)ethyl]thieno[2,3-d]pyrimidine-2,4(1H,3H)-dione], for which the IC50 turned out to be 3.9 nM.

Turning to `CCn1c(=O)c2c(C)c(C(=O)N3CCC(O)C(O)C3)sc2n(CCC(F)(F)F)c1=O` (single isomer, unassigned) [Example 121, 6-[(3,4-Dihydroxypiperidin-1-yl)carbonyl]-3-ethyl-5-methyl-1-(3,3,3-trifluoropropyl)thieno [2,3-d]pyrimidine-2,4(1H,3H)-dione], the 50% inhibitory concentration (IC50) stood at 180 nM.

As for `CCn1c(=O)c2c(C)c(C(=O)N3CCC(C)(O)CC3)sc2n(CCOC(F)(F)F)c1=O` [Example 111, 3-Ethyl-6-[(4-hydroxy-4-methylpiperidin-1-yl)carbonyl]-5-methyl-1-[2-(trifluoromethoxy)ethyl]thieno[2,3-d]pyrimidine-2,4(1H,3H)-dione], the 50% inhibitory concentration (IC50) was 4 nM.

As to `CCn1c(=O)c2c(C(F)(F)F)c(C(=O)N3CCC(C)(O)CC3)sc2n(CCC(F)(F)F)c1=O` [Example 82, 3-Ethyl-6-[(4-hydroxy-4-methylpiperidin-1-yl)carbonyl]-5-(trifluoromethyl)-1-(3,3,3-trifluoropropyl)thieno[2,3-d]pyrimidine-2,4(1H,3H)-dione], the IC50 is 23 nM.

Take `CCc1c(C(=O)N2CCNC(=O)C2)sc2c1c(=O)n(CC)c(=O)n2CCC(F)(F)F` [Example 98, 3,5-Diethyl-6-[(3-oxopiperazin-1-yl)carbonyl]-1-(3,3,3-trifluoropropyl)thieno[2,3-d]pyrimidine-2,4(1H,3H)-dione]: the IC50 was 100 nM.

Regarding `COC(Cn1c(=O)c2c(C)c(C(=O)N3CCC(O)CC3)sc2n(CCC(F)(F)F)c1=O)c1ccccc1` (single isomer, unassigned; enantiomer 1) [Example 48, 6-[(4-Hydroxypiperidin-1-yl)carbonyl]-3-(2-methoxy-2-phenylethyl)-5-methyl-1-(3,3,3-trifluoropropyl)thieno[2,3-d]pyrimidine-2,4(1H,3H)-dione (enantiomer 1)], the half-inhibitory concentration (IC50) was found to be 59 nM.

As to `COC(C)Cn1c(=O)c2c(C)c(C(=O)N3CCC(O)CC3)sc2n(CCC(F)(F)F)c1=O` (racemic) [Example 65, 6-[(4-Hydroxypiperidin-1-yl)carbonyl]-3-(2-methoxypropyl)-5-methyl-1-(3,3,3-trifluoropropyl)thieno[2,3-d]pyrimidine-2,4(1H,3H)-dione (racemate)], the IC50 was found to be 96 nM.

Regarding `CCn1c(=O)c2c(C(C)F)c(C(=O)N3CCC(O)CC3)sc2n(CCC(F)(F)F)c1=O` (racemic) [Example 145, 3-Ethyl-5-(1-fluoroethyl)-6-[(4-hydroxypiperidin-1-yl)carbonyl]-1-(3,3,3-trifluoropropyl)thieno[2,3-d]pyrimidine-2,4(1H,3H)-dione], the concentration for half-maximal inhibition (IC50) was determined as 97 nM.

In the case of `CCn1c(=O)c2c(C(F)(F)F)c(C(=O)N3CCNC(=O)C3)sc2n(CCC(F)(F)F)c1=O` [Example 42, 3-Ethyl-6-[(3-oxopiperazin-1-yl)carbonyl]-5-(trifluoromethyl)-1-(3,3,3-trifluoropropyl)thieno[2,3-d]pyrimidine-2,4(1H,3H)-dione], the IC50 was determined as 88 nM.

For the compound `CCn1c(=O)c2c(C)c(C(=O)N3CCNC(=O)C3)sc2n(CCOC)c1=O` [Example 37, 3-Ethyl-1-(2-methoxyethyl)-5-methyl-6-[(3-oxopiperazin-1-yl)carbonyl]thieno[2,3-d]pyrimidine-2,4(1H,3H)-dione], the IC50 came to 340 nM.

As for `Cc1c(C(=O)N2CCC(O)CC2)sc2c1c(=O)n(CCc1ccc(Cl)cc1)c(=O)n2CCC(F)(F)F` [Example 13, 3-[2-(4-Chlorophenyl)ethyl]-6-[(4-hydroxypiperidin-1-yl)carbonyl]-5-methyl-1-(3,3,3-trifluoropropyl)thieno [2,3-d]pyrimidine-2,4(1H,3H)-dione], the half-inhibitory concentration (IC50) came out at 100 nM.

On to `Cc1c(C(=O)N2CCC(O)CC2)sc2c1c(=O)n(CCc1cnccn1)c(=O)n2CCC(F)(F)F` [Example 17, 6-[(4-Hydroxypiperidin-1-yl)carbonyl]-5-methyl-3-[2-(pyrazin-2-yl)ethyl]-1-(3,3,3-trifluoropropyl)thieno[2,3-d]pyrimidine-2,4(1H,3H)-dione], for which the IC50 is 350 nM.

On to `CCn1c(=O)c2c(C)c(C(=O)N3CCC(O)C(O)C3)sc2n(CCC(F)(F)F)c1=O` (racemic) [Example 119, 6-[(3,4-Dihydroxypiperidin-1-yl)carbonyl]-3-ethyl-5-methyl-1-(3,3,3-trifluoropropyl)thieno [2,3-d]pyrimidine-2,4(1H,3H)-dione], for which the half-maximal inhibitory concentration (IC50) amounted to 210 nM.

With `Cc1c(C(=O)N2CCC(O)CC2)sc2c1c(=O)n(CC(F)c1ccccc1)c(=O)n2CCC(F)(F)F` (single isomer, unassigned) [Example 103, 3-(2-Fluoro-2-phenylethyl)-6-[(4-hydroxypiperidin-1-yl)carbonyl]-5-methyl-1-(3,3,3-trifluoropropyl)thieno[2,3-d]pyrimidine-2,4(1H,3H)-dione], the half-maximal inhibitory concentration (IC50) was 16 nM.

As to `Cc1c(C(=O)N2CCC(O)(C(F)(F)F)CC2)sc2c1c(=O)n(CCc1ccccc1)c(=O)n2CCC(F)(F)F` [Example 69, 6-{[4-Hydroxy-4-(trifluoromethyl)piperidin-1-yl]carbonyl}-5-methyl-3-(2-phenylethyl)-1-(3,3,3-trifluoropropyl)thieno[2,3-d]pyrimidine-2,4(1H,3H)-dione], the IC50 amounted to 60 nM.

Regarding `COC(Cn1c(=O)c2c(C)c(C(=O)N3CCC(O)CC3)sc2n(CCC(F)(F)F)c1=O)C(F)(F)F` (racemic) [Example 66, 6-[(4-Hydroxypiperidin-1-yl)carbonyl]-5-methyl-3-(3,3,3-trifluoro-2-methoxypropyl)-1-(3,3,3-trifluoropropyl)thieno[2,3-d]pyrimidine-2,4(1H,3H)-dione (racemate)], the IC50 came to 280 nM.

For `Cc1c(C(=O)N2CCNC(=O)C2)sc2c1c(=O)n(CC(F)(F)c1ccccc1)c(=O)n2CCC(F)(F)F` [Example 93, 3-(2,2-Difluoro-2-phenylethyl)-5-methyl-6-[(3-oxopiperazin-1-yl)carbonyl]-1-(3,3,3-trifluoropropyl)thieno[2,3-d]pyrimidine-2,4(1H,3H)-dione], the IC50 was determined as 36 nM.

For `CC(C)Cn1c(=O)c2c(C(F)F)c(C(=O)N3CCC(O)CC3)sc2n(CCC(F)(F)F)c1=O` [Example 139, 5-(Difluoromethyl)-6-[(4-hydroxypiperidin-1-yl)carbonyl]-3-isobutyl-1-(3,3,3-trifluoropropyl)thieno[2,3-d]pyrimidine-2,4(1H,3H)-dione], the IC50 was 39 nM.

Regarding `CCn1c(=O)c2c(C(C)F)c(C(=O)N3CCNC(=O)C3)sc2n(CCC(F)(F)F)c1=O` (single isomer, unassigned) [Example 148, 3-Ethyl-5-(1-fluoroethyl)-6-[(3-oxopiperazin-1-yl)carbonyl]-1-(3,3,3-trifluoropropyl)thieno[2,3-d]pyrimidine-2,4(1H,3H)-dione], the 50% inhibitory concentration (IC50) came to 240 nM.

With `CCn1c(=O)c2c(C(F)F)c(C(=O)N3CCC(O)CC3)sc2n(CCOC(F)(F)F)c1=O` [Example 123, 5-(Difluoromethyl)-3-ethyl-6-[(4-hydroxypiperidin-1-yl)carbonyl]-1-[2-(trifluoromethoxy)ethyl]thieno[2,3-d]pyrimidine-2,4(1H,3H)-dione], the IC50 stood at 18 nM.

Consider `CCn1c(=O)c2c(C(F)(F)F)c(C(=O)N3CCC(O)(CO)CC3)sc2n(CCC(F)(F)F)c1=O` [Example 83, 3-Ethyl-6-{[4-hydroxy-4-(hydroxymethyl)piperidin-1-yl]carbonyl}-5-(trifluoromethyl)-1-(3,3,3-trifluoropropyl)thieno[2,3-d]pyrimidine-2,4(1H,3H)-dione], for which the IC50 is 56 nM.

For `Cc1c(C(=O)N2CCC(O)CC2)sc2c1c(=O)n(CC1(c3ccccc3)CC1)c(=O)n2CCC(F)(F)F` [Example 49, 6-[(4-Hydroxypiperidin-1-yl)carbonyl]-5-methyl-3-[(1-phenylcyclopropyl)methyl]-1-(3,3,3-trifluoropropyl)thieno[2,3-d]pyrimidine-2,4(1H,3H)-dione], the IC50 stood at 68 nM.

Consider `Cc1c(C(=O)N2CCC(C)(O)CC2)sc2c1c(=O)n(CCc1ccccc1)c(=O)n2CCC(F)(F)F` [Example 67, 6-[(4-Hydroxy-4-methylpiperidin-1-yl)carbonyl]-5-methyl-3-(2-phenylethyl)-1-(3,3,3-trifluoropropyl)thieno[2,3-d]pyrimidine-2,4(1H,3H)-dione], for which the IC50 is 13 nM.

Consider `Cc1c(C(=O)N2CCC(O)CC2)sc2c1c(=O)n(CC(F)c1ccccc1)c(=O)n2CCC(F)(F)F` (single isomer, unassigned) [Example 102, 3-(2-Fluoro-2-phenylethyl)-6-[(4-hydroxypiperidin-1-yl)carbonyl]-5-methyl-1-(3,3,3-trifluoropropyl)thieno [2,3-d]pyrimidine-2,4(1H,3H)-dione], for which the half-maximal inhibitory concentration (IC50) is 3.6 nM.
